Values after ≈ are worked out from the molar mass of the structure shown. Read-outs that look alike come from different tables or passages of the source. Peptide text beside a SMILES is read from it.
Columns and labels:
Assay type in all cases: cell-based
[1] = tested on: Pseudomonas aeruginosa ATCC BAA-2109 (MDR); conditions: Pseudomonas aeruginosa ATCC BAA-2109 (MDR)
Protocol: (§1) Each peptide was formulated in PBS buffer prior to testing. Peptides of SEQ ID NO:5 and SEQ ID NO:8 were brought up in 100% DMSO with 0.002% polysorbate-80 at 1.28 mg/mL (40× the highest final test concentration of 32 mcg/mL). Final test concentration of DMSO was 2.5% in the assay at the first dilution for those two compounds.
(§2) Mueller Hinton II broth (MHB II; BD; Lot Nos. 6258541 and 7143896) was used for MIC testing of aerobic organisms. 0.002% polysorbate 80 (P80) was added to the test medium.
(§3) MIC values were determined using a broth microdilution procedure described by CLSI (1, 3). Automated liquid handlers (Multidrop 384, Labsystems, Helsinki, Finland; Biomek 2000 and Biomek FX, Beckman Coulter, Fullerton CA) were used to conduct serial dilutions and liquid transfers.
(§4) To prepare the drug mother plates, which would provide the serial peptide dilutions for the replicate daughter plates, the wells of columns 2-12 of standard 96-well microdilution plates (Costar 3795) were filled with 150 μl of the designated diluent for each row of peptide. The test articles and comparator compounds (300 μl at 40× the highest concentration to be tested) were dispensed into the appropriate wells in column 1. The Biomek 2000 was then used to make 2-fold serial dilutions in the mother plates from column 1 through column 11. The wells of Column 12 contained no drug and served as the organism growth control wells for the assay.
(§5) The daughter plates were loaded with 185 μL per well of MHB II using the Multidrop 384. The daughter plates were completed on the Biomek FX instrument which transferred 5 uL of peptide solution from each well of a mother plate to the corresponding well of each daughter plate in a single step. A standardized inoculum of each test organism was prepared per CLSI methods. The inoculum for each organism was dispensed into sterile reservoirs divided by length (Beckman Coulter), and the Biomek 2000 was used to inoculate the plates. Daughter plates were placed on the Biomek 2000 work surface in reverse orientation so that inoculation took place from low to high drug concentration. The plates were then inoculated with 10 μL of the inoculum resulting in a final cell density of approximately 5×10^5 CFU/mL, per well.
(§6) Plates were stacked 3-4 high, covered with a lid on the top plate, placed in plastic bags, and incubated at 35° C. for 16 to 20 hrs. Following incubation, the microplates were removed from the incubator and viewed from the bottom using a plate viewer. […] The MIC was read and recorded as the lowest concentration of peptide that inhibited visible growth of the organism.

[2] = tested on: Enterococcus faecalis ATCC 29212 (VSE; QC); conditions: Enterococcus faecalis ATCC 29212 (VSE; QC)
Protocol: as §1, §2, §3, §4, §5, §6

[3] = tested on: Klebsiella pneumoniae ATCC BAA-1705 (KPC)
Protocol: as §1, §2, §3, §4, §5, §6

[4] = tested on: Streptococcus pneumoniae ATCC 49619 (QC); conditions: Streptococcus pneumoniae ATCC 49619 (QC)
Protocol: as §1, §2, §3, §4, §5, §6

[5] = tested on: Acinetobacter baumannii ATCC 19606 (non-MDR); conditions: Acinetobacter baumannii ATCC 19606 (non-MDR)
Protocol: as §1, §2, §3, §4, §5, §6

[6] = tested on: Pseudomonas aeruginosa ATCC 27853 (non-MDR; QC)
Protocol: as §1, §2, §3, §4, §5, §6

[7] = tested on: Escherichia coli ATCC 25922 (QC)
Protocol: as §1, §2, §3, §4, §5, §6

[8] = tested on: Streptococcus pyogenes ATCC 49399; conditions: Streptococcus pyogenes ATCC 49399
Protocol: as §1, §2, §3, §4, §5, §6

[9] = tested on: Streptococcus agalactiae ATCC 13813
Protocol: as §1, §2, §3, §4, §5, §6

[10] = tested on: Staphylococcus aureus ATCC 43300 (MRSA)
Protocol: as §1, §2, §3, §4, §5, §6

[11] = tested on: Escherichia coli ATCC 35218 (ESBL); conditions: Escherichia coli ATCC 35218 (ESBL)
Protocol: as §1, §2, §3, §4, §5, §6

[12] = tested on: Staphylococcus aureus NRS382 (USA100; HA-MRSA)
Protocol: as §1, §2, §3, §4, §5, §6

[13] = tested on: Enterococcus faecium ATCC 51559 (VRE); conditions: Enterococcus faecium ATCC 51559 (VRE)
Protocol: as §1, §2, §3, §4, §5, §6

[14] = tested on: Escherichia coli ATCC BAA-2471 (NDM-1); conditions: Escherichia coli ATCC BAA-2471 (NDM-1)
Protocol: as §1, §2, §3, §4, §5, §6

[15] = tested on: Enterococcus faecalis ATCC 700802 (V583 VRE)
Protocol: as §1, §2, §3, §4, §5, §6

[16] = tested on: Staphylococcus aureus ATCC 29213 (MSSA; QC); conditions: Staphylococcus aureus ATCC 29213 (MSSA; QC)
Protocol: as §1, §2, §3, §4, §5, §6

Molecule	MIC [1]	MIC [2]	MIC [4]	MIC [5]	MIC [8]	MIC [9]	MIC [11]	MIC [13]	MIC [14]	MIC [16]	also measured
Colistin [reference compound]	0.12 µg/mL	>32 µg/mL	>32 µg/mL	0.25 µg/mL	>32 µg/mL	>32 µg/mL	0.12 µg/mL	>32 µg/mL	0.06 µg/mL	>32 µg/mL	MIC ([3]; Klebsiella pneumoniae ATCC BAA-1705 (KPC)): 0.12 µg/mL; MIC ([6]; Pseudomonas aeruginosa ATCC 27853 (non-MDR; QC)): 0.25 µg/mL; MIC ([7]; Escherichia coli ATCC 25922 (QC)): 0.12 µg/mL; MIC ([10]; Staphylococcus aureus ATCC 43300 (MRSA)): >32 µg/mL; MIC ([12]; Staphylococcus aureus NRS382 (USA100; HA-MRSA)): >32 µg/mL; MIC ([15]; Enterococcus faecalis ATCC 700802 (V583 VRE)): >32 µg/mL
CC(C)[C@H](NC(=O)[C@H](Cc1c[nH]c2ccccc12)NC(=O)[C@H](CCCNC(=N)N)NC(=O)[C@H](CCCNC(=N)N)NC(=O)[C@@H](NC(=O)[C@@H](NC(=O)[C@H](CCCNC(=N)N)NC(=O)[C@@H](NC(=O)[C@@H](NC(=O)[C@H](CCCNC(=N)N)NC(=O)[C@H](CCCNC(=N)N)NC(=O)[C@H](Cc1c[nH]c2ccccc12)NC(=O)[C@@H](NC(=O)[C@H](CCCNC(=N)N)NC(=O)[C@H](CCCNC(=N)N)NC(=O)[C@@H](NC(=O)[C@H](CCCNC(=N)N)NC(=O)[C@H](CCCNC(=N)N)NC(=O)[C@@H](NC(=O)[C@H](Cc1c[nH]c2ccccc12)NC(=O)[C@H](CCCNC(=N)N)NC(=O)[C@@H](N)CCCNC(=N)N)C(C)C)C(C)C)C(C)C)C(C)C)C(C)C)C(C)C)C(C)C)C(=O)N[C@@H](CCCNC(=N)N)C(=O)N[C@@H](CCCNC(=N)N)C(N)=O [SEQ ID NO: 1] (H-RRWVRRVRRVWRRVVRVVRRWVRR-NH2)	4 µg/mL (≈ 1.18 µM)	8 µg/mL (≈ 2.35 µM)	16 µg/mL (≈ 4.71 µM)	2 µg/mL (≈ 0.588 µM)	8 µg/mL (≈ 2.35 µM)	8 µg/mL (≈ 2.35 µM)	8 µg/mL (≈ 2.35 µM)	2 µg/mL (≈ 0.588 µM)	2 µg/mL (≈ 0.588 µM)	8 µg/mL (≈ 2.35 µM)	MIC ([3]; ATCC BAA-1705): 8 µg/mL (≈ 2.35 µM); MIC ([6]; ATCC 27853): 8 µg/mL (≈ 2.35 µM); MIC ([7]; ATCC 25922): 4 µg/mL (≈ 1.18 µM); MIC ([10]; ATCC 43300): 4 µg/mL (≈ 1.18 µM); MIC ([12]; USA100): 4 µg/mL (≈ 1.18 µM); MIC ([15]; ATCC 700802): 4 µg/mL (≈ 1.18 µM)

From patent US20240115654A1, “INTRAVENOUS ADMINISTRATION OF ENGINEERED ANTIMICROBIAL AMPHIPHILIC PEPTIDES” (priority 2021, published 2024)
